This note sets out measurements from paper PMC6238539, “Discovery of a cofactor-independent inhibitor of Mycobacterium tuberculosis InhA” (Life Science Alliance, 2018).

The target in series [1] is T1, M. tuberculosis InhA (Mycobacterium tuberculosis, UniProt P9WGR1). The experiment in a line: InhA in vitro inhibition assay. It counts as biochemical.
The subject of series [2] is M. tuberculosis H37Rv. The experiment in a line: microbe, parasite or virus in culture. It counts as cell-based, Mycobacterium tuberculosis. The note with it: for IC90: Mycobacterium tuberculosis, H37RV, whole-cell M. tuberculosis.
Series [3] deals with intracellular M. tuberculosis in THP-1 cells. The series can be described thus: microbe, parasite or virus in culture. It counts as cell-based. The conditions noted are these: Mycobacterium tuberculosis.
The nature of series [4]: in vitro. The series is classed as cell-based. The note with it: human; read-out: HepG2 cytotoxicity IC50. As to the method: HepG2 human liver cells (ATCC HB 8065) were propagated in DMEM containing either 25 mM glucose or 10 mM galactose plus 10% vol/vol FBS, 1 mM sodium pyruvate, 2 mM Corning glutagro, 100 U/ml penicillin, and 100 μg/ml streptomycin. The cells were seeded in 384-well plates at 1,800 cells per well and incubated in a humidified incubator at 37°C, 5% CO2. Compounds were solubilized in DMSO and assayed using a 10-point threefold serial dilution. Compounds were added 24 h post cell seeding to a final assay concentration of 1% DMSO and highest compound concentration of 100 μM. The cells were incubated for 72 h and viability measured using CellTiter-Glo reagent (Promega) and reading RLU. Growth inhibition curves were fitted using the Levenberg–Marquardt algorithm. The IC50 was defined as the compound concentration that produced 50% of the inhibitory response against HepG2 cells.

Series [5] relates to M. tuberculosis H37Rv. The series can be described thus: Kill kinetics under replicating conditions. The series is classed as cell-based, Mycobacterium tuberculosis.
Series [6] in a line: in vitro. The conditions noted are these: human.
Series [7] deals with T1, M. tuberculosis InhA. The experiment in a line: biochemical. It counts as binding.
The subject of a further series is M. tuberculosis Erdman. It counts as in vivo, Mycobacterium tuberculosis. The note with it: dose escalation study (Table S4), 25 mg/kg, day 22.

Like-named read-outs stand apart in the source and are kept apart here.

T1 sequence (P9WGR1 whole entry, looked up): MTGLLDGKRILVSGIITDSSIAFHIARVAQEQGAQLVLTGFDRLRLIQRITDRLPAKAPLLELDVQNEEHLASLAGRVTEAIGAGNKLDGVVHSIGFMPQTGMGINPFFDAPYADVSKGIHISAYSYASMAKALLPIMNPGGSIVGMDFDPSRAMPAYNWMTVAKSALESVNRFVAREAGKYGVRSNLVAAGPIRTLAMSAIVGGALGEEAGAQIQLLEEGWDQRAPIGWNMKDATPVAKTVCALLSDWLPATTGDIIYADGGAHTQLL

In general, IC50 refers to the point on the concentration scale where inhibition reaches its midpoint. The IC90 is the concentration at which the effect reaches the 90% level. Low readings indicate greater potency, high ones weaker potency. Regarding `CS(=O)(=O)N1N=Cc2ccc(Oc3ccc(C(F)(F)F)cc3/C=N/O)cc2B1O` [AN12541], the IC50 at M. tuberculosis InhA [1] is 0.4 µM; in series [3] it was 0.046 ± 0.013 µM; in “in vitro [4]”, greater than 100 µM; in the series “in vitro [6]”, greater than 50 µM. In addition, the “increase in potency against purified InhA” value on M. tuberculosis InhA [1] (versus AN6534) worked out at 190 fold. The IC90 with M. tuberculosis H37Rv [2] amounted to 0.11 ± 0.21 µM; in series [3], 0.11 ± 0.01 µM. Besides, the “increase in potency against M. tuberculosis” value with M. tuberculosis H37Rv [2] (versus AN6534) turned out to be 350 fold. For the same compound, the bactericidal activity result in the series with M. tuberculosis H37Rv [5] is “similarly active”.

Regarding `CS(=O)(=O)N1N=Cc2ccc(Oc3ccc(C#N)cc3)cc2B1O` [AN6534], the IC50 at M. tuberculosis InhA [1] turned out to be 79 µM. Besides, the IC90 in the series with M. tuberculosis H37Rv [2] came to 36 ± 1.7 µM.

`OB1OCc2ccc(Oc3ccc(C(F)(F)F)cc3)cc21` [AN2918]: the IC50 against M. tuberculosis InhA [1] was 44 µM. In the series on M. tuberculosis H37Rv [2], this compound came in with a 90% effect concentration (IC90) greater than 200 µM.

What is called Kd is the free concentration of one partner at which half of the binding sites on the other are occupied at equilibrium, for simple one-to-one binding. Read a low Kd as higher affinity. Take `CCS(=O)(=O)N1N=Cc2cc(Oc3ccc(C(F)(F)F)cc3/C=N/O)ccc2B1O` [AN12908]: on M. tuberculosis InhA [1], the IC50 amounted to 2.3 µM. In the series with M. tuberculosis H37Rv [2], this compound showed an IC90 of 7 ± 2.6 µM. Moreover, on M. tuberculosis InhA [7], the “cofactor dependence of binding to InhA” value is reported as “dependent on NAD^+ for binding”. Besides, on M. tuberculosis InhA [7] (cofactor: NAD^+), the Kd came to 0.847 ± 0.318 µM, the “N (stoichiometry of binding)” value is given as 0.49 ± 0.022, the “∆H” value is given as −25,010 ± 1,496 cal/mol and the “∆S” value is listed as −56 cal/mol/deg.

On M. tuberculosis InhA [1], `N#Cc1ccc(Oc2ccc3c(c2)COB3O)c(/C=N/O)c1` [AN3438] came in with a half-inhibitory concentration (IC50) of 12 µM. Besides, the IC90 in the series with M. tuberculosis H37Rv [2] was 16 ± 1.2 µM.

Take `NNC(=O)c1ccncc1` [INH, isoniazid]: the IC90 in the series on M. tuberculosis H37Rv [2] was determined as 0.2 µM. In addition, the “Mean ± SEM Log10 CFU” value is 4.6 ± 0.06 Log10 CFU in the series on M. tuberculosis Erdman (lung) and 2.4 ± 0.15 Log10 CFU with M. tuberculosis Erdman (spleen).
